# In patent US20070082920A1, “NAD+-dependent DNA ligase inhibitors” (priority 2005, published 2007):
# Experiments:
# [1] = Acute toxicity, Alamar blue cell viability, HepG2; format: cell-based; settings: human
# Protocol: (§1) Acute toxicity was assessed against two mammalian cell lines, HepG2 (human hepatocyte) and NIH 3T3 (mouse fibroblast). Cell viability was measured by an in vitro assay using Alamar blue. The concentration of compound which inhibited 50% of the cell growth (LC50) was determined.
# [2] = system: Streptococcus pyogenes ATCC 19615; test: MIC, broth microdilution (CLSI), S. pyogenes; format: cell-based
# Protocol: (§2) The compounds of Formulas 1-VIII were evaluated as inhibitors of NAD+-dependent DNA ligase inhibitors. Their antimicrobial activity was evaluated against bacteria using the broth microdilution method as described by Clinical Laboratory Standards Institute (formerly NCCLS). Activity was assessed against the following bacterial strains: Staphylococcus aureus ATCC 29213, Streptococcus pneumoniae ATCC 49619, Escherichia coli ATCC 25922, E. coli CGSC 5633 (ToIC mutant), Haemophilus influenzae ATCC 49766, Streptococcus pyogenes ATCC 19615, Moraxella catterhalis ATCC 25238, Enterococcus faecalis ATCC 29212. The lowest concentration of compound which inhibited visual growth of each bacterium, the minimum inhibitory concentration (MIC), was determined.
# [3] = system: Streptococcus pneumoniae ATCC 49619; test: MIC, broth microdilution (CLSI), S. pneumoniae; format: cell-based
# Protocol: as §2
# [4] = system: Staphylococcus aureus ATCC 29213; test: MIC, broth microdilution (CLSI), S. aureus; format: cell-based; settings: lowest concentration inhibiting visual growth
# Protocol: as §2
# [5] = system: Moraxella catterhalis ATCC 25238; test: MIC, broth microdilution (CLSI), M. catarrhalis; format: cell-based
# Protocol: as §2
# [6] = target: DNA ligase enzyme (NAD+-dependent DNA ligase) (Streptococcus pneumoniae serotype 4, UniProt Q97QT2); test: DNA ligase AMP release assay (luciferase readout); format: biochemical; settings: purified enzyme from S. pneumoniae
# Sequence of DNA ligase enzyme (NAD+-dependent DNA ligase) (Q97QT2 whole entry): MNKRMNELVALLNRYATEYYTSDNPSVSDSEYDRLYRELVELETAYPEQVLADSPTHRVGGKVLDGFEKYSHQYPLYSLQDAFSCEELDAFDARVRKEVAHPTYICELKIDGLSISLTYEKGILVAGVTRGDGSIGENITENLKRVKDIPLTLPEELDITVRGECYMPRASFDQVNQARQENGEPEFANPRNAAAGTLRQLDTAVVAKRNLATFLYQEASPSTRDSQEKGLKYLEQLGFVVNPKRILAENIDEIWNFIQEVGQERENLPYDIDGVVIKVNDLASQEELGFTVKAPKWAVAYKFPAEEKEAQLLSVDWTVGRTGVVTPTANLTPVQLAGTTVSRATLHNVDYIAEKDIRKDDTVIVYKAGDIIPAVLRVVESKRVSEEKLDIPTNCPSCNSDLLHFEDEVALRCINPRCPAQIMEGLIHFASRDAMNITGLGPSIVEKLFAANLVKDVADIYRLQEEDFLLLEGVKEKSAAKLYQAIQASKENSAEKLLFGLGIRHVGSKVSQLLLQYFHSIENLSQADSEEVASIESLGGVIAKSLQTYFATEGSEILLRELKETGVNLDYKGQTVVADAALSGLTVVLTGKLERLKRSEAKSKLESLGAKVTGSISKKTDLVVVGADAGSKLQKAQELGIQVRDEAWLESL
# Protocol: Activity against DNA ligase enzyme was measured using purified enzyme from S. pneumoniae. An AMP release assay was used to assess activity of compounds against the enzyme. AMP, released as a result of the ligation of oligonucleotides, is converted to ATP, which is then measured using luciferase enzyme. The concentration of compound which inhibited 50% of the ligation activity of the enzyme (IC50) was determined.
# [7] = Acute toxicity, Alamar blue cell viability, NIH 3T3; format: cell-based; settings: mouse
# Protocol: as §1
# [8] = system: E. coli CGSC 5633 (ToIC mutant); test: MIC, broth microdilution (CLSI), E. coli CGSC 5633; format: cell-based, Escherichia coli; parameters: unit not given beside the values
# Protocol: as §2
# [9] = system: Haemophilus influenzae ATCC 49766; test: MIC, broth microdilution (CLSI), H. influenzae; format: cell-based; parameters: unit not given beside the values
# Protocol: as §2
# [10] = system: Enterococcus faecalis ATCC 29212; test: MIC, broth microdilution (CLSI), E. faecalis; format: cell-based; parameters: unit not given here
# Protocol: as §2
# [11] = system: Escherichia coli ATCC 25922; test: MIC, broth microdilution (CLSI), E. coli ATCC 25922; format: cell-based; parameters: unit not given here
# Protocol: as §2
# [12] = system: NAD+-dependent DNA ligase; settings: specific DHFR inhibitors; background; cited from earlier work
# [13] = HepG2 cells, Alamar blue, 50% inhibition of cell growth, read-out: Acute Tox LC50 μM/ HepG2
# [14] = NIH 3T3 cells, Alamar blue, 50% inhibition of cell growth, read-out: Acute Tox LC50 μM/ NIH-3T3
SMILES,CC50 [1] [µM],MIC S. pyogenes [2],MIC S. pneumoniae [3],MIC S. aureus ATCC 29213 [4],MIC M. catarrhalis [5],IC50 [6] [µM],CC50 [7] [µM],MIC E. coli CGSC 5633 [8],MIC H. influenzae [9],MIC E. faecalis [10],MIC E. coli ATCC 25922 [11],"CC50 [1, 13] [µM]","CC50 [7, 14] [µM]",inhibition of NAD+-dependent DNA ligase (in words) [12]
Cc1c(Cc2ccccc2)c(NCc2ccc(F)c(F)c2)nc2nc(N)nc(N)c12 [II-b],14,1,4,4,2,12.6,2.94,0.125,64,1,32,–,–,–
Cc1c(Cc2ccccc2)c(N(C)C2CCCCC2)nc2nc(N)nc(N)c12 [II-c],15,2,4,4,2,11.3,5.13,<0.125,>128,2,128,–,–,–
Cc1c(N(C)C2CCCCC2)nc2nc(N)nc(N)c2c1C [II-e],19,2 to 8,4,32,4 to 8,79.1,10.9,0.125,–,1,64,–,–,–
Cc1cc(Nc2ccc3c(c2)OCCCO3)nc2nc(N)nc(N)c12 [III-p],20,–,4,128,16,11.4,15.6,0.125,–,0.5,64,–,–,–
COc1cc(CN(C)c2cc(C)c3c(N)nc(N)nc3n2)cc(OC)c1OC [IV-a],–,64,4,64,16,15.2,–,<0.125,64,2,15,–,–,–
Cc1cc(N(C)C2CCCCC2)nc2nc(N)nc(N)c12 [IV-d],23.4,32,8,64,16,15.2,12.8,0.125,51,2,64,–,–,–
CCCc1cc(N(C)C2CCCCC2)nc2nc(N)nc(N)c12 [IV-e],15.1,1,2,32,4,80.6,9.9,0.5,–,1,128,–,–,–
Cc1cc(N2CCCc3ccccc32)nc2nc(N)nc(N)c12 [V-a],27.1,32,8,32,16,–,11.5,<0.125,16,<0.125,64,–,–,–
Cc1cc(N2Cc3ccccc3C2)nc2nc(N)nc(N)c12 [V-b],8.85,16,8,16,32,7.35,8.09,2,>128,8,64,–,–,–
Nc1nc(N)c2c3c(c(NCc4ccc(F)c(F)c4)nc2n1)CCCC3 [VII-a],19.2,32,4,16,8,17.3,1.24,0.5,64,8,>128,–,–,–
CN(c1nc2nc(N)nc(N)c2c2c1CCCC2)C1CCCCC1 [VII-b],19.2,4,8,8,4,5.94,1.37,<0.125,64,4,128,–,–,–
Cc1cc(NCc2cc(F)c(F)c(F)c2)nc2nc([N+](=O)[O-])nc([N+](=O)[O-])c12 [VIII-a],–,8,16,8,2,–,–,4,32,16,64,> 30.8,22.2,–
Cc1cc(NCc2cc(F)cc(C(F)(F)F)c2)nc2nc([N+](=O)[O-])nc([N+](=O)[O-])c12 [VIII-b],–,4,8,8,4,–,–,2,64,4,64,> 16.4,12.1,–
CN(Cc1cnc2nc(N)nc(N)c2n1)c1ccc(C(=O)N[C@@H](CCC(=O)O)C(=O)O)cc1 [methotrexate],–,–,–,–,–,–,–,–,–,–,–,–,–,not to inhibit
COc1cc(Cc2cnc(N)nc2N)cc(OC)c1OC [trimethoprim],–,–,–,–,–,–,–,–,–,–,–,–,–,not to inhibit
